{"source": "patent US8501911B2", "about": "“Methods of reducing inflammation and mucus hypersecretion” (Biomarck Pharmaceuticals, Ltd, priority 1999, dated 2013)", "key": {"MARCKS protein": {"tested_on": "MARCKS protein", "experiment": "MARCKS protein level in NHBE cells (Western blot)", "assay_type": "cell-based, human", "details": "TNF-α 10 ng/ml 4 h", "description": "(§1) NHBE cells were treated with the antisense or the control oligonucleotide for 3 days and then stimulated with PMA (100 nM)+8-Br-cGMP (1 μM) for 15 min. Mucin secretion was analyzed by ELISA. Total RNA and protein were isolated from treated cells. MARCKS mRNA was assessed by Northern hybridization, and protein was assessed by Western blot. […] In this regard, MARCKS mRNA as a percent of control is shown in the following results which are designated as Results-I-3A-2:\n(§2) Antisense Oligonucleotides—MARCKS antisense oligonucleotide and its corresponding control oligonucleotide were synthesized at Biognostik GmbH (Gottingen, Germany). […] Cells were then incubated with secretagogues, and mucin secretion was measured by ELISA. […] MARCKS mRNA was assessed by Northern hybridization according to conventional procedures using human MARCKS cDNA as a probe. MARCKS protein level was determined by Western blot using purified anti-MARCKS IgG1 (clone 2F12) as the primary detection antibody.\n(§3) NHBE cells were incubated with 10 ng/ml human recombinant TNF-α or medium alone for 4 hrs, then stimulated with PMA (100 nM)+8-Br-cGMP (1 μM) for 15 min, or UTP (0.1 mM) for 2 hrs. Secreted mucin was collected and measured by ELISA. […] MARCKS mRNA was assessed by Northern hybridization, and protein by the Western Blot technique. […]"}, "MARCKS mRNA": {"tested_on": "MARCKS mRNA", "experiment": "MARCKS mRNA level in NHBE cells (Northern hybridization)", "assay_type": "cell-based, human", "details": "TNF-α 10 ng/ml 4 h, then PMA 100 nM+8-Br-cGMP 1 μM 15 min", "description": "as §1, §2, §3"}}}
{"substance": "TNF-α", "values": [{"measurement": "Increase in MARCKS protein vs medium only (Western blot)", "setting": "MARCKS protein", "value": "three- to four-fold increase"}, {"measurement": "MARCKS protein level relative to control", "setting": "MARCKS protein; then PMA 100 nM+8-Br-cGMP 1 μM 15 min", "value": 352, "unit": "%"}, {"measurement": "MARCKS mRNA level relative to control", "setting": "MARCKS mRNA", "value": 115, "unit": "%"}]}
